Data reported in patent US11510931B2, “Compositions and methods for treating ophthalmic conditions” (MEDICON PHARMACEUTICALS, INC., priority 2016, dated 2022).

Assays:
MMP-1 = MMP-1 levels in cultured human conjunctival cells (ELISA); assay type: cell-based; details: for reduction of MMP-1 secreted into the culture medium: compared to controls; for levels of MMP-1 secreted into the culture medium: mean±SEM
Description: In an in vitro assay with purified MMP-1 (collagenase I) as […] it was shown that PS inhibited collagenase activity with an IC50 of <100 nM. In cultured human conjunctiva cells, PS suppressed MMP-1 by 75%-86%. In the lacrimal glands of rabbits with DED treated with PS eye drops, PS suppressed MMP-9 levels by 27% compared to vehicle treated rabbits (2.20±0.24 vs. 1.66±0.20 ng/mg protein; p<0.05; mean±SEM).
The Mechanism of Action of PS in Dry Eye. Tissue culture, animal and human studies have established inflammation as the core mechanism of DED^8. To determine the mechanism of action of PS in DED the response to PS of several factors known to play an important role in the inflammation associated with DED was explored. They include NF-κB; the cytokines TGF-β, IL-1 β, IL-6 and IL-8; the collagenases MMP-1 and MMP-9; and PGE2. In these studies we used human conjunctival epithelial cells, the Wong-Kilbourne derivative of Chang conjunctival cells (clone 1 to 5c-41 American Type Culture Collection (Manassas, Va.) certified cell line, 20.2).

MMPs = test: General MMP activity in rabbit cornea (FRET peptide); assay type: in vivo
Description: The general activity of MMPs was determined in the corneas of three groups of rabbits. This MMP activity assay employs a fluorescence resonance energy transfer (FRET) peptide as a generic MMP indicator. Rabbits were treated with PS 1.6% or ketorolac 0.5% eye drops topically applied to their eyes or were not treated (naïve group). Results in relative fluorescence units (RFU)/mg protein (mean±SEM). Naïve=1,328±123; PS=749±218; Ketoroloac=1,272±106 (p<0.03 vs PS).
In an acute experiment, naïve rabbits were treated with either PS or ketorolac (both administered topically) for 1 h and determined the activity of MMP in the cornea. This assay determines the activity of MMPs collectively in a given tissue.

`CCOP(=O)(OCC)OCCCCOC(=O)CC1=C(C)/C(=C/c2ccc([S+](C)[O-])cc2)c2ccc(F)cc21` (stereo not shown) [PS, phosphosulindac] was tested, and the “reduction of MMP-1 secreted into the culture medium” value (MMP-1; PS 1×IC50, 2 h) was 48%, the “levels of MMP-1 secreted into the culture medium” value (MMP-1; PS 1×IC50, 2 h) was 24.9±0.8 and the “reduction of MMP-1 secreted into the culture medium” value (MMP-1; PS 1.5×IC50, 2 h) was 55%. The “levels of MMP-1 secreted into the culture medium” value (MMP-1; PS 1.5×IC50, 2 h) was 21.6±0.8, the MMP-1 suppression (MMP-1; cultured human conjunctiva cells) was 75%-86% and the “suppression of the activity of MMPs in the cornea” value (MMPs; naïve rabbits, topical, 1 h) was 43%. The “general activity of MMPs in the corneas” value (MMPs; rabbits, PS 1.6% or ketorolac 0.5% eye drops, mean±SEM) was 749±218 RFU/mg protein.
